# Reference: patent US20090320869A1, “METHODS FOR PREVENTING REVERSION OF RELAXED KERATINOUS FIBERS AND FOR RELAXING KERATINOUS FIBERS” (L'Oreal, S.A.,, priority 2003, published 2009)
# What was measured:
# Parameters in all cases: species or system human
# [1] = Effect of D-xylose concentration on hair relaxed with a commercial alkali relaxer (Example 4); details: for % Reversion / % Straightening: flat iron 1 min 175° C., 1 h at 100% RH
# Procedure: [formula] The percent reversion (“% reversion”)=100%−(% straightening) Virgin African-American (kinky) hair was processed with an alkali relaxer as follows. The commercial cream relaxer was applied to a swatch of hair for 10 min at room temperature. Next, the cream was washed off, the swatch was profusely rinsed with tepid water, and the treatment solution was applied for 5 min. The treatment solutions included water; 1% D-xylose; 3% D-xylose; and 5% D-xylose. Next, the swatch was briefly rinsed to remove an excess of the treatment solution from the hair surface, blow-dried, and heat was applied in the form of a flat iron for 1 min (175° C.). The heat-treated swatch was rinsed with tepid water, air-dried at 50% RH (25° C.), and maintained for 1 h at 100% RH (25° C.). The percent hair straightening was determined as in Example 1.
# [2] = Percent straightening / reversion of hair relaxed with various concentrations of sodium hydroxide, D-xylose post-treatment and heat (Example 2); details: for % Reversion / % Straightening: flat iron 1 min 130° C., 24 h at 90% RH
# Procedure: [formula] The percent reversion (“% reversion”)=100%−(% straightening) Virgin African-American (kinky) hair was processed with different concentrations of sodium hydroxide for 20 min at room temperature: 1.0%, 1.5%, 2.0%, and 2.5% NaOH, respectively. Next, the sodium hydroxide solution was washed off, the swatch was profusely rinsed with tepid water, and the treatment solution was applied for 5 min at room temperature. The treatment solutions included water and 5% D-xylose. Next, the swatch was briefly rinsed to remove an excess of the treatment solution from the hair surface, blow-dried, and heat was applied in the form of a flat iron for 1 min (130° C.). The heat-treated swatch was rinsed with tepid water, air-dried at 50% RH (25° C.), and maintained for 24 h at 90% RH (25° C.). The percent hair straightening was determined as in Example 1.
# [3] = Percent straightening / reversion of hair relaxed with 2.5% sodium hydroxide, D-xylose post-treatment and heat (Example 1); details: for % Reversion / % Straightening: flat iron five strokes 130° C., 24 at 90% RH (25° C.)
# Procedure: Virgin African-American (kinky) hair was processed and 2.5% sodium hydroxide for 20 min at room temperature. Next, the sodium hydroxide solution was washed off, the swatch was profusely rinsed with tepid water, and the treatment solution was applied for 5 min at room temperature. The treatment solutions included: water; 1% D-xylose; and 5% D-xylose. Next, the swatch was briefly rinsed to remove an excess of the treatment solution from the hair surface, blow-dried, and heat was applied in the form of five strokes with a flat iron (130° C.). The heat-treated swatch was rinsed with tepid water, air-dried at 50% RH (25° C.), and maintained for 24 at 90% RH (25° C.). The percent hair straightening (“% straightening”) was determined as follows: [formula] The percent reversion (“% reversion”)=100%−(% straightening)
# [4] = Effect of pH of D-xylose solutions on hair relaxed with 2.0% sodium hydroxide (Example 3); details: for % Reversion / % Straightening: 2.0% NaOH + 5% D-Xylose, flat iron 1 min 130° C., 24 h at 90% RH
# Procedure: [formula] The percent reversion (“% reversion”)=100%−(% straightening) Virgin African-American (kinky) hair was processed with 2.0% sodium hydroxide for 20 min at room. Next, the sodium hydroxide solution was washed off, the swatch was profusely rinsed with tepid water, and the treatment solution was applied for 10 min at 45° C. The treatment solutions included: buffer solution, pH 2.0; buffer solution, pH 6.0; buffer solution, pH 10.0; 5% D-xylose, pH 2.0; 5% D-xylose, pH 6.5; and 5% D-xylose, pH 10. The solutions were buffered using phosphoric acid and sodium hydroxide. Next, the swatch was briefly rinsed to remove an excess of the treatment solution from the hair surface, blow-dried, and heat was applied in the form of a flat iron for 1 min. (130° C.). The heat-treated swatch was rinsed with tepid water, air-dried at 50% RH (25° C.), and maintained for 24 h at 90% RH (25° C.). The percent hair straightening was determined as in Example 1.
# [5] = Effect of D-xylose on hair relaxed with a commercial thioglycolate relaxer (Example 5); details: for % Reversion / % Straightening: flat iron 30 sec 175° C., 1 h at 100% RH
# Procedure: [formula] The percent reversion (“% reversion”)=100%−(% straightening) Virgin African-American (kinky) hair was processed with a commercial thioglycolate cream relaxer as follows. The thioglycolate cream relaxer was applied to a swatch of kinky hair for 15 min at room temperature (reduced hair). Next, the thioglycolate cream was washed off, the swatch was profusely rinsed with tepid water, and a hydrogen peroxide cream was applied for 5 min. The treatment solutions included: water and 5% D-xylose. The treatment solutions were applied either between the rinsing of the thioglycolate cream relaxer and the application of the hydrogen peroxide cream, or after the application of the hydrogen peroxide cream, respectively. The treatment solutions was applied for 5 min at room temperature. Next, the swatch was briefly rinsed to remove an excess of the treatment solution from the hair surface, blow-dried, and heat was applied in the form of a flat iron for 30 sec (175° C.). The heat-treated swatch was rinsed with tepid water, air-dried at 50% RH (25° C.), and maintained for 1 h at 100% RH (25° C.). The percent hair straightening was determined as in Example 1.
# [6] = commercial alkali cream relaxer 10 min + 1% D-Xylose 5 min
# [7] = commercial alkali cream relaxer 10 min + 3% D-Xylose 5 min
# [8] = commercial alkali cream relaxer 10 min + 5% D-Xylose 5 min
# [9] = 2.5% NaOH 20 min + 1% D-Xylose 5 min
# [10] = 2.5% NaOH 20 min + 5% D-Xylose 5 min
# [11] = thioglycolate reduced hair + 5% D-Xylose, then hydrogen peroxide
# [12] = thioglycolate reduced hair + hydrogen peroxide, then 5% D-Xylose
compound,measurement,setting,value
"O=C[C@H](O)[C@@H](O)[C@H](O)CO [D-Xylose, D-xylose]",% Reversion,[1]; [6],30.9%
same,% Straightening,[1]; [6],69.1%
same,% Reversion,[1]; [7],24.0%
same,% Straightening,[1]; [7],76.0%
same,% Reversion,[1]; [8],22.0%
same,% Straightening,[1]; [8],78.0%
same,reversion of relaxed hair (in words),"[1]; post-treatment with various concentrations of D-xylose vs water, commercial alkali relaxer",prevented reversion of the relaxed hair
same,% Reversion,[2]; 1.0% NaOH + 5% D-Xylose,42.9%
same,% Straightening,[2]; 1.0% NaOH + 5% D-Xylose,57.1%
same,% Reversion,[2]; 1.5% NaOH + 5% D-Xylose,21.4%
same,% Straightening,[2]; 1.5% NaOH + 5% D-Xylose,78.6%
same,% Reversion,[2]; 2.0% NaOH + 5% D-Xylose,0%
same,% Straightening,[2]; 2.0% NaOH + 5% D-Xylose,100%
same,% Reversion,[2]; 2.5% NaOH + 5% D-Xylose,0%
same,% Straightening,[2]; 2.5% NaOH + 5% D-Xylose,100%
same,curl reversion in relaxed kinky hair (in words),"[2]; post-treatment with a D-xylose solution vs water, 1.0-2.5% NaOH",prevented curl reversion in the relaxed kinky hair better than post-treatment with water
same,% Reversion,[3]; [9],7.2%
same,% Straightening,[3]; [9],92.8%
same,% Reversion,[3]; [10],0%
same,% Straightening,[3]; [10],100%
same,curl reversion in relaxed kinky hair (in words),"[3]; post-treatment with a D-xylose solution, hair relaxed with 2.5% NaOH",prevented curl reversion
same,% Reversion,"[4]; pH 2.0, 10 min at 45° C.",20.0%
same,% Straightening,"[4]; pH 2.0, 10 min at 45° C.",80.0%
same,% Reversion,"[4]; pH 6.5, 10 min at 45° C.",10.0%
same,% Straightening,"[4]; pH 6.5, 10 min at 45° C.",90.0%
same,% Reversion,"[4]; pH 10.0, 10 min at 45° C.",0.00%
same,% Straightening,"[4]; pH 10.0, 10 min at 45° C.",100%
same,reversion of relaxed hair (in words),[4]; post-treatment with a D-Xylose solution vs buffer solution at various pH values,prevented reversion of the relaxed hair better than post-treatment with a buffer solution
same,reversion of relaxed hair (in words),"[5]; post-treatment with a D-xylose solution, thioglycolate hair relaxer",prevented reversion
same,% Reversion,[5]; [11],0.00%
same,% Straightening,[5]; [11],100%
same,% Reversion,[5]; [12],14.0%
same,% Straightening,[5]; [12],86.0%
